Data published in paper PMC6534063, “Synthesis of modified 1,5-imino-D-xylitols as ligands for lysosomal β-glucocerebrosidase” (Monatshefte Fur Chemie, 2019).
pIC50, pKi: −log10 of the molar value. Read-outs that look alike come from different tables or passages of the source.

How the values were obtained:
[1] = molecular target: β-xylosidase from Thermoanaerobacterium saccharolyticum; conditions: read-out: Ki (Xyl Therm. sac.), cited from earlier work
[2] = molecular target: human lysosomal β-glucocerebrosidase (GCase); conditions: cited from earlier work; for pIC50: compounds 10a-10b
[3] = molecular target: T1, Fabrazyme (commercial recombinant human lysosomal α-galactosidase) (Homo sapiens, UniProt P06280); assay: Ki determination with Fabrazyme; assay type: biochemical; conditions: 37 °C, citrate/phosphate buffer with Triton X-100 and taurocholic acid pH 5.5, 4-nitrophenyl glycopyranoside substrate; read-out: Ki α-Gal, Fabrazyme
T1 construct: purchased Fabrazyme, a commercial product; received as a gift from Dr Lorne Clarke, University of British Columbia
T1 sequence (P06280 32-429): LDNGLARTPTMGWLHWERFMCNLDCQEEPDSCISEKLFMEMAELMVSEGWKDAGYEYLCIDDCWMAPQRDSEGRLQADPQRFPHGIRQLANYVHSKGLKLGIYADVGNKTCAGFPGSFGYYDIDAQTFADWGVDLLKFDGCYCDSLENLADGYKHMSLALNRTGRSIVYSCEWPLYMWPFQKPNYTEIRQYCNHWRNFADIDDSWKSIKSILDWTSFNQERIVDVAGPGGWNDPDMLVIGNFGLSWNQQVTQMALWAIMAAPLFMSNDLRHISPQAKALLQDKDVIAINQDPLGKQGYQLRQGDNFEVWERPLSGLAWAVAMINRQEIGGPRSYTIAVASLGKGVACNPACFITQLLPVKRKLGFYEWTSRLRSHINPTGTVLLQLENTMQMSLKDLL
Text: (§1) For the biological evaluation of the synthesized DIX derivatives 19, 23, 26, and 28, we have probed a series of standard glycoside hydrolases, including β-glucosidase from Agrobacterium sp. (ABG), β-galactosidase from E. coli, Fabrazyme (commercial recombinant human lysosomal α-galactosidase), α-glucosidase S. cerevisiae, and human β-glucocerebrosidase GCase, to investigate ligand activity as well as selectivity. […] This increase in selectivity might be explained by the fact that compounds 26 and 28 combine the advantages of both features, the ethyl group at position C-1 locking the structure in the ^1C4 conformation as well as the lipophilic substituents at the ring nitrogen. The former has been implied for favorable ligand properties and the fitting into the active site of GCase. The latter interacts with the lipophilic entrance to the active site of GCase mimicking the ceramide residue of the natural substrate glucosyl ceramide. Compounds 26 and 28 will serve as building blocks for further functionalisation as proposed.
(§2) Kinetic studies were performed at 37 °C in an appropriate buffer using a known concentration of enzyme (specific conditions depicted below). Ki determinations were performed using the corresponding 4-nitrophenyl α- or β-D-glycopyranoside as substrate. In a typical assay, the enzyme was incubated with different inhibitor concentrations for up to 5 min before initiating the reaction by the addition of substrate. The initial reaction rate was measured by monitoring the increase in absorbance at 400 nm for up to 10 min. Ki determinations were performed using at least two different substrate concentrations. For each inhibitor, a range of four-to-six inhibitor concentrations bracketing the Ki value ultimately determined was used for each substrate concentration. Dixon plots (1/v vs. [I]) were constructed to validate the use of the competitive inhibition model. The data were then fitted using non-linear regression analysis with Grafit 7.0.

[4] = molecular target: T2, β-glucosidase/β-galactosidase from Agrobacterium sp. (ABG) (Agrobacterium sp., UniProt P12614); assay: Ki determination with β-glucosidase from Agrobacterium sp. (ABG); assay type: biochemical; conditions: for pKi: 37 °C, 50 mM sodium phosphate buffer pH 7, 4-nitrophenyl glycopyranoside substrate, read-out: Ki β-Glu, ABG
T2 construct: made in house; host or cells: E. coli
T2 sequence (P12614 1-459): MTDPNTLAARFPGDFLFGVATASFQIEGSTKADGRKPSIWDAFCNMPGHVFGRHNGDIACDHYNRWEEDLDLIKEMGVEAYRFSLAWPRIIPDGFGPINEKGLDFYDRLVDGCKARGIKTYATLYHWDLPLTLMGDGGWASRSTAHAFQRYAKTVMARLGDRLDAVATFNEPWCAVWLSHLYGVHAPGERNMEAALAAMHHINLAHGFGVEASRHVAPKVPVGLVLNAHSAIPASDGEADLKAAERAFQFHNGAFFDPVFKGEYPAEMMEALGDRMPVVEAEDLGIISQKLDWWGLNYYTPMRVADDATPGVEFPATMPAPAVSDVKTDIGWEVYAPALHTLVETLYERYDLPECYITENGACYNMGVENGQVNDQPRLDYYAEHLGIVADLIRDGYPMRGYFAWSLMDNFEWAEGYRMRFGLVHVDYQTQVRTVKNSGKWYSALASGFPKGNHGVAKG
Text: as §1, §2

[5] = molecular target: S. cerevisiae α-glucosidase; assay: Ki determination with α-glucosidase S. cerevisiae; assay type: biochemical; conditions: 37 °C, 50 mM sodium phosphate buffer pH 7, PNP α-Glc substrate; read-out: Ki α-Glu, S. cer.
Text: as §1, §2

[6] = molecular target: T3, E.coli lac z β-galactosidase (Escherichia coli, UniProt P00722); assay: Ki determination with β-galactosidase from E. coli; assay type: biochemical; conditions: 37 °C, 50 mM sodium phosphate, 1.0 mM MgCl2 pH 7, 4-nitrophenyl glycopyranoside substrate; read-out: Ki β-Gal, E. coli
T3 construct: purchased Sigma-Aldrich
Text: as §1, §2

[7] = molecular target: T4, human β-glucocerebrosidase (GCase) (Homo sapiens, UniProt P04062); assay: Ki determination with human β-glucocerebrosidase (GCase); assay type: biochemical; conditions: 37 °C, citric acid/phosphate buffer with Triton X-100 and taurocholic acid pH 7.0, 4-nitrophenyl glycopyranoside substrate; read-out: Ki β-Glu, Gaucher (GCase)
T4 construct: gift of Dr. Lorne Clarke, University of British Columbia
T4 sequence (P04062 40-536): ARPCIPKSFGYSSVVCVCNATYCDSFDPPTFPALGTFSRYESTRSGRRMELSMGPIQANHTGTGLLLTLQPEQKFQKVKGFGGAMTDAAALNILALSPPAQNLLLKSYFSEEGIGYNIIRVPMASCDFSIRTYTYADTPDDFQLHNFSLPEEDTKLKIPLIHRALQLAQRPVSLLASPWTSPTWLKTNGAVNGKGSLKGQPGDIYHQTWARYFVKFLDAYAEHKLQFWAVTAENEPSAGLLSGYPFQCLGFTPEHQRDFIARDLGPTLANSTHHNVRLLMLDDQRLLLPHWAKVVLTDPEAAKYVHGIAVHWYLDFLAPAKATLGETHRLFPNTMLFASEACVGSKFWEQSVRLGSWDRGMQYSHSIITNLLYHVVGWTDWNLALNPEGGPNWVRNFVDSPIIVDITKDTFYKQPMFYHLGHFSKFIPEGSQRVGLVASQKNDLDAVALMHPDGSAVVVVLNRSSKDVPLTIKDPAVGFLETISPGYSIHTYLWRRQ
Text: as §1, §2

[8] = C-1 alkyl modified DIX analogues 15
[9] = D-xylo 1-C-iminosugar glycosides 14

T3 sequence (P00722 2-1024 limits assumed): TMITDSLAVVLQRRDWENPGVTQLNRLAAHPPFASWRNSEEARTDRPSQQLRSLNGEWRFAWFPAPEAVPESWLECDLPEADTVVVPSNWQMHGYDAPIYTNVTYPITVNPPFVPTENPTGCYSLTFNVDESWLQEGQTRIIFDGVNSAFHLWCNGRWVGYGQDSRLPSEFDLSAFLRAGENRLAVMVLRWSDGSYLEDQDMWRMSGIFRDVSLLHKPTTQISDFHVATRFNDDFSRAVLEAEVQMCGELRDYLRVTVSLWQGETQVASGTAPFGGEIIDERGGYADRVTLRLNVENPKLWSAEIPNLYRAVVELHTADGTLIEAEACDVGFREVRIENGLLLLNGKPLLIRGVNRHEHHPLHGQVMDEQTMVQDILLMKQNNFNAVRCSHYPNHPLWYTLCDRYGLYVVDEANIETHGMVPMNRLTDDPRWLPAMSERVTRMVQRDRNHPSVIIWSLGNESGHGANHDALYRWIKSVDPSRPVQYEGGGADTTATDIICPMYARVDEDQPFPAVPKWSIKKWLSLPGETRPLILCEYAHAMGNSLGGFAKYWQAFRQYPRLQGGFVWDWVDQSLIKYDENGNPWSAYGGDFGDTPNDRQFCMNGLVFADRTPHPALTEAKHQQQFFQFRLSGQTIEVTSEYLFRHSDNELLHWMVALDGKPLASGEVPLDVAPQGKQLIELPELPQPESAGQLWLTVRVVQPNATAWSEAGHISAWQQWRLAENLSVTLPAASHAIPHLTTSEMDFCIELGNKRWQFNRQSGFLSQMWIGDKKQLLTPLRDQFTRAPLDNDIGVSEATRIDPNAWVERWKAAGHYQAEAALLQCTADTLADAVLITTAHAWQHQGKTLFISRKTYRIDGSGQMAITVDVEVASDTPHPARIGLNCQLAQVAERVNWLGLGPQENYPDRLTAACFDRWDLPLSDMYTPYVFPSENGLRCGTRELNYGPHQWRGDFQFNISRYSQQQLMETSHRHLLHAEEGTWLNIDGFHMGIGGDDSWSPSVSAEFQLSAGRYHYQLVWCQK

Question: With `COC(=O)[C@H](CCCCN1C[C@@H](O)[C@H](O)[C@@H](O)C1)NS(=O)(=O)c1cccc2c(N(C)C)cccc12` [8, R^1 = NHdansyl, R^2 = OMe] as the compound, how does the pKi ([1]; N-modified DIX derivatives 8) read?
Answer: The pKi was 5.00.

Question: With `COC(=O)[C@H](CCCCN1C[C@@H](O)[C@H](O)[C@@H](O)C1)NC(=O)[C@H](CCCCN1C[C@@H](O)[C@H](O)[C@@H](O)C1)NS(=O)(=O)c1cccc2c(N(C)C)cccc12` [8, R^1 = NHdansyl, R^2 =] as the compound, how does the pKi ([1]; N-modified DIX derivatives 8) read?
Answer: Its pKi is 4.68.

Question: With `COC(=O)[C@H](CCCCN1C[C@@H](O)[C@H](O)[C@@H](O)C1)N1C[C@@H](O)[C@H](O)[C@@H](O)C1` [8, R^1 = R^2 = OMe] as the compound, how does the pKi ([1]; N-modified DIX derivatives 8) read?
Answer: The pKi was 4.60.

Question: With `N#CCCN1C[C@@H](O)[C@H](O)[C@@H](O)C1` [Compound 7a] as the compound, how does the pKi ([1]; N-modified DIX derivatives 7) read?
Answer: The pKi was 4.62.

Question: With `COC(=O)CCN1C[C@@H](O)[C@H](O)[C@@H](O)C1` [Compound 7b] as the compound, how does the pKi ([1]; N-modified DIX derivatives 7) read?
Answer: The pKi was 4.46.

Question: With `CCCCCC[C@H]1NC[C@@H](O)[C@H](O)[C@H]1O` [Compound 10a] as the compound, how does the pIC50 [2] read?
Answer: The pIC50 was 7.72.

Question: With `CCCCCCO[C@H]1CNC[C@@H](O)[C@@H]1O` [Compound 10b] as the compound, how does the pIC50 [2] read?
Answer: Its pIC50 is 8.05.

Question: Which results are given for `CCOC(=O)CC[C@H]1NC[C@@H](O)[C@H](O)[C@H]1O` [Compound 19, (1R)-1-C-(Ethyloxycarbonylethyl)-1,5-dideoxy-1,5-imino-D-xylitol]?
Answer: pKi [3]: < 3.00; pKi [4]: 5.68; pKi [5]: < 3.00; pKi [6]: < 3.00; pKi [7]: 5.29

Question: With `O=C(CC[C@H]1NC[C@@H](O)[C@H](O)[C@H]1O)NCCc1c[nH]cn1` [Compound 23, (1R)-1-C-[(Imidazo-4-yl)ethylaminocarbonylethyl]-1,5-dideoxy-1,5-imino-D-xylitol] as the compound, how does the pKi [3] read?
Answer: The pKi was less than 3.00.

Question: And the pKi [4]?
Answer: Its pKi is 5.80.

Question: What about the pKi [5] of the same compound?
Answer: The pKi was less than 3.00.

Question: What about the pKi [6] of the same compound?
Answer: Its pKi is less than 3.00.

Question: What about the pKi [7] of the same compound?
Answer: The pKi was 5.96.

Question: With `CC[C@@H]1[C@H](O)[C@@H](O)[C@H](O)CN1CCCCCC(=O)OC` [Compound 26, (1R)-1-C-Ethyl-N-(methyloxycarbonylpentyl)-1,5-dideoxy-1,5-imino-D-xylitol] as the compound, how does the pKi [3] read?
Answer: Its pKi is less than 3.00.

Question: And the “inhibition of β-Glu ABG, in words” value [4]?
Answer: The value was “No detectable inhibition”.

Question: What about the pKi [4] of the same compound?
Answer: Its pKi is less than 3.00.

Question: What about the pKi [5] of the same compound?
Answer: The pKi was less than 3.00.

Question: What about the pKi [6] of the same compound?
Answer: Its pKi is less than 3.00.

Question: And the pKi [7]?
Answer: The pKi was 4.24.

Question: Which results are given for `CC[C@@H]1[C@H](O)[C@@H](O)[C@H](O)CN1CCCCCC(=O)NCCc1c[nH]cn1` [Compound 28, (1R)-1-C-Ethyl-N-[(imidazo-4-yl)ethylaminocarbonylpentyl]-1,5-dideoxy-1,5-imino-D-xylitol]?
Answer: pKi [3]: < 3.00; inhibition of β-Glu ABG, in words [4]: No detectable inhibition; pKi [4]: < 3.00; pKi [5]: < 3.00; pKi [6]: < 3.00; pKi [7]: 5.39

Question: With `CCC[C@H]1NC[C@@H](O)[C@H](O)[C@H]1O` [R = (CH2)2CH3] as the compound, how does the pKi [2, 8] read?
Answer: Its pKi is 5.89.

Question: With `OCC[C@H]1NC[C@@H](O)[C@H](O)[C@H]1O` [R = (CH2)2OH] as the compound, how does the pKi [2, 8] read?
Answer: The pKi was 4.57.

Question: With `CCCCCCCCC[C@H]1NC[C@@H](O)[C@H](O)[C@H]1O` [R = C9H19] as the compound, how does the pKi ([2]; 1-C-alkyl imino-D-xylitols 9) read?
Answer: Its pKi is 8.66.

Question: With `CCCCCCCCCCCC[C@H]1NC[C@@H](O)[C@H](O)[C@H]1O` [R = C12H25] as the compound, how does the pKi ([2]; 1-C-alkyl imino-D-xylitols 9) read?
Answer: Its pKi is 7.51.

Question: With `CC[C@H]1NC[C@@H](O)[C@H](O)[C@H]1O` [R = CH2CH3] as the compound, how does the pKi [2, 8] read?
Answer: The pKi was 5.64.

Question: With `CC(C)[C@H]1NC[C@@H](O)[C@H](O)[C@H]1O` [R = CH(CH3)2] as the compound, how does the pKi [2, 8] read?
Answer: The pKi was 4.91.

Question: With `N#C[C@H]1NC[C@@H](O)[C@H](O)[C@H]1O` [R = CN] as the compound, how does the pKi [2, 8] read?
Answer: The pKi was 4.47.

Question: With `O[C@@H]1[C@@H](O)[C@@H](CCCCCOCC23CC4CC(CC(C4)C2)C3)NC[C@H]1O` [R^1 = C-C, n=2, R^2 =] as the compound, how does the pKi [2, 9] read?
Answer: The pKi was 9.00.

Question: With `O[C@@H]1[C@@H](O)[C@@H](CC=CCCOCC23CC4CC(CC(C4)C2)C3)NC[C@H]1O` [R^1 = C=C, n=2, R^2 =] as the compound, how does the pKi [2, 9] read?
Answer: The pKi was 8.70.
